Values quoted from earlier work as cited in patent publication US6534676B2, “Method to treat chronic heart failure and/or elevated cholesterol levels using 3,5-diiodothyropropionic acid and method to prepare same” (The Arizona Board of Regents on Behalf of the University of …, priority 2001, dated 2003).

Legend:
[1] = background statement; cited from earlier work
[2] = short-term intravenous, patients with advanced congestive failure; cited from earlier work

NC(Cc1cc(I)c(Oc2cc(I)c(O)c(I)c2)c(I)c1)C(=O)O [Thyroxine, 3,5,3′5′-L-thyronine]
half-life [1]: 6 to 7 days

N[C@@H](Cc1cc(I)c(Oc2ccc(O)c(I)c2)c(I)c1)C(=O)O [T3, 3′,3,5-L-triiodothyrone]
cardiac output and arterial vascular resistance [2]: improve cardiac output and decrease arterial vascular resistance
half-life [1]: two days or less
